These results are taken from patent US8846699B2, “Quinazoline derivatives as a multiplex inhibitor and method for the preparation thereof” (Hanmi Pharm. Co., Ltd., priority 2005, dated 2014).

Assay [1] deals with Human Umbilical Vein Endothelial Cell (HUVEC). The assay can be described thus: Inhibitory effect on growth of human umbilical vein endothelial cell (HUVEC), MTS. The assay is classed as cell-based. The following applies: 10 ng/ml VEGF, absorbance 490 nm. As to the method:
HUVECs (Young Science, Inc) were suspended in a culture medium, EBM-2 (Endothelial Basic Media, Cambrex) supplemented with 2% bovine serum (Cambrex) and auxiliary additives for HUVEC culture (e.g., EGF, VEGF, FGF, etc., Cambrex), inoculated into a culture flask coated with 1% gelatin, and incubated in an incubator at 37° C. under 5% CO2 and 100% humidity.
100 μl of 5% bovine serum medium containing 10 ng/ml of vascular endothelial growth factor (VEGF) and auxiliary additives, while excluding other growth factors was added to each well of a 96-well plate. […] DMSO (Dimethylsulfoxide) was used to dissolve the test compounds, and the final concentration of DMSO was less than 1%.
100 μl of the diluted cell solution was added to each well of the 96-well plate, which was incubated in an incubator for 96 hours.
Then, 20 μl of MTS ([…], Promega) solution was added to each well of the plate, and the plate was incubated in an incubator for 4 hours to induce discoloration. After 4 hours, the pellets were dissolved by way of a thorough shaking, and the absorbance at 490 nm was determined.

A further assay has as its target VEGFR2 (KDR) (Homo sapiens (Human), UniProt P35968). The assay is described as follows: VEGFR2 (KDR) enzyme assay, fluorescence polarization. The assay is classed as biochemical. Particulars: 5 μM ATP, poly(Glu, Tyr) substrate. The procedure:
VEGFR2 (KDR, Proquinase) enzyme assay (auto-phosphorylation assay) was carried out by using Tyrosine Kinase Assay Kit Green (Panvera). The entire assay was conducted in accordance with VEGFR PTK inhibitor cellular activity test S.O.P.
A typical kinase inhibition reaction requires a protein tyrosine kinase, a suitable buffer solution system, a peptide substrate and ATP. In the present VEGFR tyrosine kinase assay, a buffer solution system containing 20 mM HEPES (pH 7.4), 5 mM MgCl2 and 2 mM MnCl2; 50 μM Na3VO4; 200 ng/10 μl VEGFR (Proquinase); 5 μM ATP; and 10 ng/ml poly(Glu, Tyr) (4:1, Sigma) as a substrate were used.
The compounds of Test Example 1 were used as control compounds at a concentration of 0.0001 to 10 μM. After 10 min, 10 μl of poly(Glu, Tyr) as a substrate was added to each well, and 10 μl of ATP was added thereto to initiate kinase reaction. The plate was incubated at room temperature for 1 hour, and 10 μl of 100 mM EDTA was added to each well to terminate the kinase reaction.
The added EDTA was mixed for 5 min. Thereafter, 10 μl of 10× anti-phosphotyrosine antibody (Panvera), 10 μl of 10×PTK Green Tracer (Panvera) and 30 μl of FP dilution buffer (Panvera) were added thereto, and the plate was incubated in a dark room at room temperature for 30 min.

The subject of assay [2] is skin cancer cell line, A431. The assay is described as follows: Inhibitory effect on growth of cancer cell line A431, SRB. The assay is classed as cell-based. Particulars: overexpressed EGFR1 (HER-1). An excerpt: (§1) A skin cancer cell line, A431 (ATCC: CRL-1555), a breast cancer cell line, SK-Br3 (ATCC: HTB-30), and a colon and rectal cancer cell line, SW-620 (ATCC: CCL-227) were used to test the degrees of cancer cell growth inhibition using a culture medium, DEME (Dulbecco's Modified Eagle's Medium, JBI) including 4.5 g/l of glucose and 1.5 g/l of sodium bicarbonate and supplemented with 10% FBS (fetal bovine serum, JBI).
(§2) The cancer cell lines stored in a liquid nitrogen tank were each quickly thawed at 37° C., and centrifuged to remove the medium. The resulting cell pellet was mixed with a culture medium, incubated in a culture flask at 37° C. under 5% CO2 for 2 to 3 days, and the medium was removed. The remaining cells were washed with DPBS (Dulbecco's Phosphate Buffered Saline, JBI) and separated from the flask by using Trypsin-EDTA solution, and the separated cells were diluted with a culture medium to a concentration of 1.0×10^6 cells/ml in case of A431 and SW-620, and 2.0×10^6 cells/ml in case of SK-Br3. 100 μl of the diluted cell solution was added to each well of a 96-well plate, which was incubated at 37° C. under 5% CO2 for 1 day.
(§3) In case that the test compound was not soluble in DMSO, a small amount of 1% HCl was added thereto and treated in a 40° C. water bath for 30 mins until complete dissolution was attained. The test compound solution was diluted with a culture medium to a final concentration of 10 μM, and then diluted 10 times serially to 10^−4. The final concentration of DMSO was less than 1%, and the control compounds of Test Example 1 were used at a concentration of 0.0001 to 10 μM.
(§4) The medium was removed from each well of the 96-well microplate, 100 μl of a diluted test compound solution was added to each well holding cultured cells, and the microplate was incubated at 37° C. under 5% CO2 for 72 hours. After removing the medium from the plate, 50 μl of 10% trichloroacetic acid was added to each well, and the plate was kept at 37° C. for 1 hour to fix the cells to the bottom of the plate. 10% trichloroacetic acid was removed from each well, the plate was dried, 100 μl of an SRB (Sulforhodamine-B, Sigma) dye solution was added thereto, and reacted for 10 mins. The SRB dye solution was prepared by dissolving SRB in 1% acetic acid to a concentration of 0.4%. After removing the dye solution, the plate was washed with water, and dried. When the dye solution was not removed by water, 1% acetic acid was used.
(§5) 150 μl of 10 mM trisma base (Sigma) was added to each well, and the absorbance at 570 nm was determined with a microplate reader (Molecular device).

The subject of assay [3] is breast cancer cell line, SK-Br3. The assay can be described thus: Inhibitory effect on growth of cancer cell line SK-Br3, SRB. Particulars: overexpressed EGFR2 (HER-2). The assay is classed as cell-based.
Text: as §1, §2, §3, §4, §5

The target in the next assay is EGFR1 (HER-1) (Homo sapiens (Human), UniProt P00533). The assay can be described thus: EGFR1 (HER-1) enzyme assay, fluorescence polarization. The assay is classed as biochemical. Particulars: 100 μM ATP, poly(Glu, Tyr) substrate.
EGFR1 (HER-1), sequence (P00533 25-1210): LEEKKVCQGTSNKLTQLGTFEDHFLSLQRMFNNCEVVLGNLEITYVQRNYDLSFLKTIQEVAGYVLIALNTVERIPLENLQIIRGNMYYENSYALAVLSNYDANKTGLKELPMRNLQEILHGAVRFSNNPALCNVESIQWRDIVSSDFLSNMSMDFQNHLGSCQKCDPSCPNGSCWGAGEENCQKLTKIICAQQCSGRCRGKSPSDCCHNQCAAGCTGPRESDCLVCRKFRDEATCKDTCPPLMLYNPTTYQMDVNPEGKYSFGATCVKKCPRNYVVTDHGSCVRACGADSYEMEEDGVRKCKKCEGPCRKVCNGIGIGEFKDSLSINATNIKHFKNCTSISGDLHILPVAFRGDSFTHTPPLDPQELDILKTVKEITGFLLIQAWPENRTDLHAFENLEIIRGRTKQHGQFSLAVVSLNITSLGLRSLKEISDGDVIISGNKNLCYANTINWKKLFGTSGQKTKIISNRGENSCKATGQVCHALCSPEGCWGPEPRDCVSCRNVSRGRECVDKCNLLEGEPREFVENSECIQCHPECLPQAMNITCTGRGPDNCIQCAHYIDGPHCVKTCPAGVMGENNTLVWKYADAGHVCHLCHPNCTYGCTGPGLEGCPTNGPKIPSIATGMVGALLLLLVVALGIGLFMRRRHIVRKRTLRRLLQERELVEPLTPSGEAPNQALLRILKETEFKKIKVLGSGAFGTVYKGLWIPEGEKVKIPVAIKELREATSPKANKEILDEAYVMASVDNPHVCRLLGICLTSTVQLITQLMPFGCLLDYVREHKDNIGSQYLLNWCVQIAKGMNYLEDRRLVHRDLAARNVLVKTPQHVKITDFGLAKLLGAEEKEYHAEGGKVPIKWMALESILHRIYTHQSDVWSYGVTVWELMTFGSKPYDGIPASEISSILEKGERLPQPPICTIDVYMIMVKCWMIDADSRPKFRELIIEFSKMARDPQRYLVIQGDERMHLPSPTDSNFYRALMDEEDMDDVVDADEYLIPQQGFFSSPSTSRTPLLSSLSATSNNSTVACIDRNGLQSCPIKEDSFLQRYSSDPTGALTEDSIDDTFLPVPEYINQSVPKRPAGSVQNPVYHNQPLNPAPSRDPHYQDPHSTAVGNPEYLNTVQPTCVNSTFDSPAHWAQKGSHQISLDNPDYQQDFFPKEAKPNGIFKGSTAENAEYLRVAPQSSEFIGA
Assay [4] deals with colon and rectal cancer cell line, SW-620. The assay can be described thus: Inhibitory effect on growth of cancer cell line SW-620, SRB. The assay is classed as cell-based. Particulars: not having overexpressed EGFR and EGFR2.
Text: as §1, §2, §3, §4, §5

VEGFR2 (KDR), sequence (P35968 20-1356): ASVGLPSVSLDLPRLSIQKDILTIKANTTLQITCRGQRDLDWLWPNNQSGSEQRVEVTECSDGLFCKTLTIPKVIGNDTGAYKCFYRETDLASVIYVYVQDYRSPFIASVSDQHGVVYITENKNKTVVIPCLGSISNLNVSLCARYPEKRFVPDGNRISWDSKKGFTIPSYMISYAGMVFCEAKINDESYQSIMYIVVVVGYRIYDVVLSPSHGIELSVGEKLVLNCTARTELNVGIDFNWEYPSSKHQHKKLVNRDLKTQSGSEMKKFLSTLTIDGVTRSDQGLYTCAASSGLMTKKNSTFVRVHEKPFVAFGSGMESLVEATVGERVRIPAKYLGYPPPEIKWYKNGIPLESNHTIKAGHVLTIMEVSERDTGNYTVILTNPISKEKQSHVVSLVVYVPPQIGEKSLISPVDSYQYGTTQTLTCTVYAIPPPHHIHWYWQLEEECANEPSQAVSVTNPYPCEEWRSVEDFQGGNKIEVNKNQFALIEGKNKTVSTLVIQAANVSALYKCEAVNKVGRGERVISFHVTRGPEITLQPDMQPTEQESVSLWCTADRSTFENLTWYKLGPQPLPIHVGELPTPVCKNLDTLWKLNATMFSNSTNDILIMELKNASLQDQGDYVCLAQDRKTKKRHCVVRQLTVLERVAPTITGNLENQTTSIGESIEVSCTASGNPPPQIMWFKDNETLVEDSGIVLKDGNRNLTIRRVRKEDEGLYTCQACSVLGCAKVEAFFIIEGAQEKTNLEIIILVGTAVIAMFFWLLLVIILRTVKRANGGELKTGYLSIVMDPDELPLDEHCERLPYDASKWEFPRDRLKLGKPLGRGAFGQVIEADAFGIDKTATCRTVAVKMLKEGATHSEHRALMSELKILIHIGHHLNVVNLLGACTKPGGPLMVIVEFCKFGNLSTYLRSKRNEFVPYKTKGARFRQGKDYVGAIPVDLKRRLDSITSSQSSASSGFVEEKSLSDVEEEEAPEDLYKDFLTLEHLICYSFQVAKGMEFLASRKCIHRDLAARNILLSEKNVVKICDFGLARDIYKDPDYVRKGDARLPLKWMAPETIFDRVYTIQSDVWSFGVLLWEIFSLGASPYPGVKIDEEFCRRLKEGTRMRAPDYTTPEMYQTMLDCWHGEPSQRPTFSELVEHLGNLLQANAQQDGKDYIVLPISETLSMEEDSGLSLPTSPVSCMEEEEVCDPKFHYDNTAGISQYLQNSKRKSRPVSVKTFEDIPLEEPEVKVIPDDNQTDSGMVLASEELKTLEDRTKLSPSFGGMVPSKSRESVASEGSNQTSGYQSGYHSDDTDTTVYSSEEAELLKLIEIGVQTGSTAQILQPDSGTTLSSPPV

In the case of `C=CC(=O)Nc1cc2c(Nc3ccc(Br)cc3F)ncnc2cc1OCC1CCN(C(C)=O)CC1` [Example 1, N-[7-(1-acetyl-piperidin-4-ylmethoxy)-4-(4-bromo-2-fluoro-phenylamino)-quinazolin-6-yl]-acrylamide], the half-maximal inhibitory concentration (IC50) was 85 nM in assay [1] (Homo sapiens, 96 h); 131 nM on VEGFR2 (KDR); 48 nM in assay [2] (Homo sapiens, A-431, 72 h); 283 nM in assay [3] (Homo sapiens, SK-BR-3, 72 h); 3 nM at EGFR1 (HER-1); 3060 nM in assay [4] (Homo sapiens, 72 h).
Regarding `C=CC(=O)Nc1cc2c(Nc3ccc(Br)cc3F)ncnc2cc1OCC1CCN(C(=O)C(F)(F)F)CC1` [Example 2, N-{4-(4-bromo-2-fluoro-phenylamino)-7-[1-(2,2,2-trifluoro-acetyl)-piperidin-4-ylmethoxy]-quinazolin-6-yl}-acrylamide], the IC50 was found to be 96 nM in assay [1] (Homo sapiens, 96 h); 250 nM on VEGFR2 (KDR); 82 nM in assay [2] (Homo sapiens, A-431, 72 h); 240 nM in assay [3] (Homo sapiens, SK-BR-3, 72 h); 47 nM against EGFR1 (HER-1); 4580 nM in assay [4] (Homo sapiens, 72 h).
On to `C=CC(=O)Nc1cc2c(Nc3ccc(Br)cc3F)ncnc2cc1OCC1CCN(C(=O)CS(C)(=O)=O)CC1` [Example 3, N-{4-(4-bromo-2-fluoro-phenylamino)-7-[1-(2-methanesulfonyl-acetyl)-piperidin-4-ylmethoxy]-quinazolin-6-yl}-acrylamide], for which the IC50 in assay [1] (Homo sapiens, 96 h) was found to be 90 nM; against VEGFR2 (KDR) it was 108 nM; in assay [2] (Homo sapiens, A-431, 72 h), 48 nM; in assay [3] (Homo sapiens, SK-BR-3, 72 h), 216 nM; at EGFR1 (HER-1), 26 nM; in assay [4] (Homo sapiens, 72 h), 6310 nM.
For the compound `C=CC(=O)Nc1cc2c(Nc3ccc(Br)cc3F)ncnc2cc1OCC1CCN(C(N)=O)CC1` [Example 4, 4-[6-acryloylamino-4-(4-bromo-2-fluoro-phenylamino)-quinazolin-7-yloxymethyl]-piperidin-1-carboxylic acid amide], the IC50 was 87 nM in assay [1] (Homo sapiens, 96 h); 136 nM at VEGFR2 (KDR); 25 nM in assay [2] (Homo sapiens, A-431, 72 h); 147 nM in assay [3] (Homo sapiens, SK-BR-3, 72 h); 15 nM on EGFR1 (HER-1); 5680 nM in assay [4] (Homo sapiens, 72 h).
On to `C=CC(=O)Nc1cc2c(Nc3ccc(Br)cc3F)ncnc2cc1OCC1CCN(C(=O)C=C)CC1` [Example 5, N-[7-(1-acryloyl-piperidin-4-ylmethoxy)-4-(4-bromo-2-fluoro-phenylamino)-quinazolin-6-yl]-acrylamide], for which the IC50 came out at 34 nM in assay [1] (Homo sapiens, 96 h); 203 nM against VEGFR2 (KDR); 37 nM in assay [2] (Homo sapiens, A-431, 72 h); 241 nM in assay [3] (Homo sapiens, SK-BR-3, 72 h); 3 nM on EGFR1 (HER-1); 2350 nM in assay [4] (Homo sapiens, 72 h).
As for `C=CC(=O)Nc1cc2c(Nc3ccc(Br)cc3F)ncnc2cc1OCCNS(C)(=O)=O` [Example 33, N-[4-(4-bromo-2-fluoro-phenylamino)-7-(2-methanesulfonylamino-ethoxy)-quinazolin-6-yl]-acrylamide], the IC50 in assay [1] (Homo sapiens, 96 h) stood at 390 nM; against VEGFR2 (KDR), 369 nM; in assay [2] (Homo sapiens, A-431, 72 h) it was 34 nM; in assay [3] (Homo sapiens, SK-BR-3, 72 h), 167 nM; in assay [4] (Homo sapiens, 72 h), 10000 nM.
On to `C=CC(=O)Nc1cc2c(Nc3ccc(Br)cc3F)ncnc2cc1OCCNC(=O)CCN` [Example 62, N-[7-[2-(3-amino-propionylamino)-ethoxy]-4-(4-bromo-2-fluoro-phenylamino)-quinazolin-6-yl]-acrylamide], for which the IC50 in assay [1] (Homo sapiens, 96 h) is 697 nM; against VEGFR2 (KDR), 749 nM; in assay [3] (Homo sapiens, SK-BR-3, 72 h), 369 nM; in assay [4] (Homo sapiens, 72 h) it was 724 nM.
Turning to `C=CC(=O)Nc1cc2c(Nc3ccc(Br)cc3F)ncnc2cc1OCCNC(=O)c1ccc[nH]1` [Example 99, 1H-pyrrole-2-carboxylic acid {2-[6-acryloylamino-4-(4-bromo-2-fluoro-phenylamino)-quinazolin-7-yloxy]-ethyl}-amide], the IC50 in assay [1] (Homo sapiens, 96 h) was determined as 989 nM; at VEGFR2 (KDR) it was 997 nM; in assay [2] (Homo sapiens, A-431, 72 h), 408 nM; in assay [3] (Homo sapiens, SK-BR-3, 72 h), 3310 nM; in assay [4] (Homo sapiens, 72 h) it was 10000 nM.
The corresponding values for `C=CC(=O)Nc1cc2c(Nc3ccc(Cl)cc3F)ncnc2cc1OCCNC(C)=O` [Example 112, N-[7-(2-acetylamino-ethoxy)-4-(4-chloro-2-fluoro-phenylamino)-quinazolin-6-yl]-acrylamide] are 189 nM, 114 nM, 19 nM, 100 nM and 9560 nM.
The corresponding values for `C=CC(=O)Nc1cc2c(Nc3c(F)cc(Br)cc3F)ncnc2cc1OCCNC(C)=O` [Example 120, N-[7-(2-acetylamino-ethoxy)-4-(4-bromo-2,6-difluoro-phenylamino)-quinazolin-6-yl]-acrylamide] are 269 nM, 127 nM, 26 nM, 186 nM and 10000 nM.
For `C=CC(=O)Nc1cc2c(Nc3cc(C(=O)NOC)c(Br)cc3F)ncnc2cc1OCCNC(C)=O` [Example 131, 5-[7-(2-acetylamino-ethoxy)-6-acryloylamino-quinazolin-4-ylamino]-2-bromo-4-fluoro-N-methoxy-benzamide], the 50% inhibitory concentration (IC50) in assay [1] (Homo sapiens, 96 h) was 965 nM; on VEGFR2 (KDR), 756 nM.
Regarding `C=CC(=O)Nc1cc2c(Nc3ccc(Br)cc3F)ncnc2cc1OCCNC(=O)C(CO)N(C)C` (stereo not drawn) [Example 162, N-{4-(4-bromo-2-fluoro-phenylamino)-7-[2-(2-dimethylamino-3-hydroxy-propionylamino)-ethoxy]-quinazolin-6-yl}-acrylamide], the IC50 in assay [1] (Homo sapiens, 96 h) amounted to 882 nM; against VEGFR2 (KDR) it was 797 nM; in assay [2] (Homo sapiens, A-431, 72 h), 154 nM; in assay [3] (Homo sapiens, SK-BR-3, 72 h) it was 141 nM; in assay [4] (Homo sapiens, 72 h), 10000 nM.
In the case of “N-{2-[6-acryloylamino-4-(4-bromo-2-fluoro-phenylamino)-quinazolin-7-yloxy]-ethyl}-malonic acid ethylester [Example 69]”, the IC50 in assay [1] (96 hours) was 954 nM; at VEGFR2 (KDR) it was 985 nM; in assay [2] (72 hours), 238 nM; in assay [3] (72 hours) it was 654 nM; in assay [4] (72 hours), 10000 nM.
